Patent publication US20260083865A1, “PROSTATE SPECIFIC MEMBRANE ANTIGEN (PSMA) LIGANDS AND USE THEREOF” (priority 2022, published 2026)
Numbered stars: 1 amine (or outer) side, 2 acyl side, 3 side chain; on linkers, the order of the positions; unused ones are H or OH. Bridge positions count the residues as written; N and C are the ends. Square brackets hold non-standard residues; d marks the D form. Side chains are listed from the residue outwards. Peptide text beside a SMILES is read from it. * marks the point of attachment. X3 = O=C(O)CN1CCN(CC(=O)O)CCN(CC(=O)NCCCOCCOCCOCCCN*)CCN(CC(=O)O)CC1; DOTA = O=C(O)CN1CCN(CC(=O)O)CCN(CC(=O)*)CCN(CC(=O)O)CC1; Phe(3-Cl) = N[C@@H](Cc1cccc(Cl)c1)C(=O)O; Phe(4-Cl) = N[C@@H](Cc1ccc(Cl)cc1)C(=O)O; Phe(4-NH2) = Nc1ccc(C[C@H](N)C(=O)O)cc1; Pro(4R-NH2) = N[C@H]1CN[C@H](C(=O)O)C1; X1 = O=C(CC1CCN([*:1])CC1)[*:2]; Cit = NC(=O)NCCC[C@H](N)C(=O)O; Suc = O=C(CCC(=O)[*:2])[*:1]; Tle = CC(C)(C)[C@H](N)C(=O)O; Pyridin(2-yl) = c1ccc(*)nc1; 4Amb = NCc1ccc(C(=O)O)cc1; Orn = NCCC[C@H](N)C(=O)O; Aib = CC(C)(N)C(=O)O; CO = O=C([*:1])[*:2]; Bn = c1ccc(C*)cc1; βAla = NCCC(=O)O; NHBu = CCCCN*

Legend:
[1] = molecular target: T1, PSMA-expressing C4-2 cells (Homo sapiens, UniProt Q04609); assay: FACS binding assay (competition with 50 nM PSM-0183); conditions: pIC50 category of FACS binding, C4-2 cells; read-out: pIC50 [C4-2] CAT (converted)
T1 construct: PSMA-expressing C4-2 cells (ATCC, Cat. No. CRL-3314) were cultured in RPMI-1640; host or cells: C4-2 cells
In short: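 Competition format: fluorescent tracer PSM-0183 (50 nM) displaced from PSMA on C4-2 cells by a test compound titration over 1 h at 4 °C. Bound tracer was quantified as flow-cytometric AF488 median fluorescence after washing. Four-parameter logistic fits of MFI data gave IC50 and pIC50.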

[2] = molecular target: T2, Fc-fusion protein of human PSMA (hPSMA-Fc) (Homo sapiens, UniProt Q04609); assay: Surface plasmon resonance assay (Biacore T200, single cycle kinetic); format: binding; conditions: pKD category for PSMA SPR activity assay, hPSMA-Fc, 25° C.; read-out: pKD CAT (converted)
T2 construct: purchased Acro Biosystems PSA-H5264
In short: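 KD, expressed as pKD, came from 1:1 Langmuir fits of reference- and buffer-blank-subtracted SPR data. The runs were single-cycle kinetics at 25° C in HBST/0.1% DMSO over human PSMA-Fc, captured to ~1000 RU on a peptide-coated CM5 surface and regenerated with 10 mM glycine pH 1.5.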

T1 sequence (Q04609 whole entry): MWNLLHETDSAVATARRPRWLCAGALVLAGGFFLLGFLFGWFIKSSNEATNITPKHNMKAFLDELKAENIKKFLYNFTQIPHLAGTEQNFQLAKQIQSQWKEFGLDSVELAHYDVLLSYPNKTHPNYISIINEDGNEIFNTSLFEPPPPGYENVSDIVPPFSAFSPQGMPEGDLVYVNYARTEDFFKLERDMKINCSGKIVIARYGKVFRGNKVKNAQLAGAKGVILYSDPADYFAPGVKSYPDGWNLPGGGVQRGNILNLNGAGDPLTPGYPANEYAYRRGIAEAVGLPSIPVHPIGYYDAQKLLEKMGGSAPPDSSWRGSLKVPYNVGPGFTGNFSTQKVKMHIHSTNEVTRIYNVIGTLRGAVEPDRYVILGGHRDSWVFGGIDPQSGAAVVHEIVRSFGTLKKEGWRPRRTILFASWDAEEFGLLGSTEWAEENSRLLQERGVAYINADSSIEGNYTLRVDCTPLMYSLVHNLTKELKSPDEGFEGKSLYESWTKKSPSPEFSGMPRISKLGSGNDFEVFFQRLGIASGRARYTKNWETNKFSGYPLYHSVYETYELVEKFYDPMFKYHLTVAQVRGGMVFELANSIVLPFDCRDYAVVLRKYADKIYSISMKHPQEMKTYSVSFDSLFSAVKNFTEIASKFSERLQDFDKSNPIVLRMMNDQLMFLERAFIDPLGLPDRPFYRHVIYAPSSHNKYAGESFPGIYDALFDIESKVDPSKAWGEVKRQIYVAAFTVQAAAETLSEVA
T2 sequence (Q04609 44-750 limits assumed): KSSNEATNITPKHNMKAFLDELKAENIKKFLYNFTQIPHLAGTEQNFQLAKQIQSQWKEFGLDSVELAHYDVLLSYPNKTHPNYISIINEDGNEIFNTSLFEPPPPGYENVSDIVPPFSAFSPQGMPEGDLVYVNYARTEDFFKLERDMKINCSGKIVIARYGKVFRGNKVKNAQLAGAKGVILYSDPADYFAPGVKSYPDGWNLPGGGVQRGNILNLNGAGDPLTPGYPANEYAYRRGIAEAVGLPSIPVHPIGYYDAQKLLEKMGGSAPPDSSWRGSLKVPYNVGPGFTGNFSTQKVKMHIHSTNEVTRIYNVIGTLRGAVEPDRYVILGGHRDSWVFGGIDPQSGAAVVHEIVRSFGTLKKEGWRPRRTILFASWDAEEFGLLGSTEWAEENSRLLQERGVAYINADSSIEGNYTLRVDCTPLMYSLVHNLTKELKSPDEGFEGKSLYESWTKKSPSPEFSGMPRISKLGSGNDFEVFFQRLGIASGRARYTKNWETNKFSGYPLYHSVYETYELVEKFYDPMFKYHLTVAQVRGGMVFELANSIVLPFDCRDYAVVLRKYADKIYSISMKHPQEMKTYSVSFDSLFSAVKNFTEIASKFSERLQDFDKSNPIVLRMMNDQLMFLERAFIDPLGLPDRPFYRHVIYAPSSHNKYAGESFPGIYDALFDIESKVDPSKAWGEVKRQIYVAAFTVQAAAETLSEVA

| Structure (SMILES) | IC50 [1] | Kd [2] |
| --- | --- | --- |
| CC(=O)N[C@H](C(=O)NC(C)(C)C(=O)N[C@@H](Cc1ccc(Cl)cc1)C(=O)N[C@H]1CSSC[C@@H](C(=O)N[C@H](CC(C)C)C(=O)N[C@H](C(N)=O)[C@@H](C)O)NC(=O)[C@H](CC(N)=O)NC(=O)C(C)(C)NC(=O)[C@H](CCCNC(N)=O)NC(=O)[C@H](CCCCN)NC1=O)[C@@H](C)O [PSM-0421, Ac-Thr-Aib-Pcf-[Cys-Lys-Cit-Aib-Asn-Cys]-leu-Thr-NH2] (Ac-T[Aib][Phe(4-Cl)]CK[Cit][Aib]NC[dL]T-NH2; disulfide 4-9) | 200 to 1260 nM | 126 to 501 nM |
| CC(=O)N[C@H](C(=O)NC(C)(C)C(=O)N[C@@H](Cc1ccccc1)C(=O)N[C@H]1CSSC[C@@H](C(=O)N[C@H](C(=O)N[C@H](C(=O)N[C@@H](CC(=O)O)C(N)=O)[C@@H](C)O)C(C)(C)C)NC(=O)[C@H](CC(N)=O)NC(=O)[C@H](C)NC(=O)[C@H](CCCNC(=N)N)NC(=O)[C@@H]2C[C@@H](N)CN2C1=O)[C@@H](C)O [PSM-0422, Ac-Thr-Aib-Phe-[Cys-Tap-Arg-Ala-Asn-Cys]-Tle-Thr-Asp-NH2] (Ac-T[Aib]FC[Pro(4R-NH2)]RANC[Tle]TD-NH2; disulfide 4-9) | < 200 nM | 126 to 501 nM |
| CC(=O)N[C@H](C(=O)NC(C)(C)C(=O)N[C@@H](Cc1ccccc1)C(=O)N[C@H]1CSSC[C@@H](C(=O)N[C@H](C(=O)N[C@H](C(N)=O)[C@@H](C)O)C(C)(C)C)NC(=O)[C@H](CC(N)=O)NC(=O)[C@H](CCCCNC(=O)CCC(=O)NCCCOCCOCCOCCCNC(=O)CN2CCN(CC(=O)O)CCN(CC(=O)O)CCN(CC(=O)O)CC2)NC(=O)[C@H](CCC(N)=O)NC(=O)[C@H](CCCCN)NC1=O)[C@@H](C)O [PSM-0423, Ac-Thr-Aib-Phe-[Cys-Lys-Gln-Lys(DOTA-Ttds)-Asn-Cys]-Tle-Thr-NH2] (Ac-T[Aib]FCKQK([Suc-X3])NC[Tle]T-NH2; disulfide 4-9) | 200 to 1260 nM | 12.6 to 126 nM |
| CC(=O)N[C@H](C(=O)NC(C)(C)C(=O)N[C@@H](Cc1ccccc1)C(=O)N[C@H]1CSSC[C@@H](C(=O)N[C@H](C(=O)NCCC(N)=O)C(C)(C)C)NC(=O)[C@H](CC(N)=O)NC(=O)C(C)(C)NC(=O)[C@H](CCCNC(=N)N)NC(=O)[C@H](CCCCN)NC1=O)[C@@H](C)O [PSM-0426, Ac-Thr-Aib-Phe-[Cys-Lys-Arg-Aib-Asn-Cys]-Tle-Bal-NH2] (Ac-T[Aib]FCKR[Aib]NC[Tle][βAla]-NH2; disulfide 4-9) | < 200 nM | < 12.6 nM |
| CCCCNC(=O)N[C@H](C(=O)NC(C)(C)C(=O)N[C@@H](Cc1ccc(Cl)cc1)C(=O)N[C@H]1CSSC[C@@H](C(=O)N[C@H](C(=O)N[C@H](C(=O)N2CCC(CC(=O)N[C@H](CCCCNC(=O)CN3CCN(CC(=O)O)CCN(CC(=O)O)CCN(CC(=O)O)CC3)C(N)=O)CC2)[C@@H](C)O)C(C)(C)C)NC(=O)[C@H](CC(N)=O)NC(=O)C(C)(C)NC(=O)[C@H](CCCNc2ccccn2)NC(=O)[C@H](CCCCN)NC1=O)[C@@H](C)O [PSM-0427, nBuCAyl-Thr-Aib-Pcf-[Cys-Lys-Opy-Aib-Asn-Cys]-Tle-Thr-Cmp-lys(DOTA)-NH2] ({NHBu-CO}-T[Aib][Phe(4-Cl)]CK[Orn](Pyridin(2-yl))[Aib]NC[Tle]T[X1][dK](DOTA)-NH2; disulfide 4-9) | < 200 nM | 12.6 to 126 nM |
| C[C@@H](O)[C@H](NC(=O)[C@@H](NC(=O)[C@@H]1CSSC[C@H](NC(=O)[C@H](Cc2cccc(Cl)c2)NC(=O)C(C)(C)NC(=O)[C@@H](NC(=O)CC2CCN(C(=O)CN3CCN(CC(=O)O)CCN(CC(=O)O)CCN(CC(=O)O)CC3)CC2)[C@@H](C)O)C(=O)N[C@@H](CCCCN)C(=O)N[C@@H](CCCNC(N)=O)C(=O)NC(C)(C)C(=O)N[C@@H](CC(N)=O)C(=O)N1)C(C)(C)C)C(N)=O [PSM-0431, DOTA-Cmp-Thr-Aib-Mcf-[Cys-Lys-Cit-Aib-Asn-Cys]-Tle-Thr-NH2] ({DOTA}-[X1]T[Aib][Phe(3-Cl)]CK[Cit][Aib]NC[Tle]T-NH2; disulfide 5-10) | 200 to 1260 nM | < 12.6 nM |
| CC(C)(NC(=O)c1ccc(CNC(=O)CN2CCN(CC(=O)O)CCN(CC(=O)O)CCN(CC(=O)O)CC2)cc1)C(=O)N[C@@H](Cc1ccc(Cl)cc1)C(=O)N[C@H]1CSSC[C@@H](C(=O)N[C@H](C(=O)NCCC(N)=O)C(C)(C)C)NC(=O)[C@H](CC(N)=O)NC(=O)C(C)(C)NC(=O)[C@H](CCCNC(=N)N)NC(=O)[C@H](CCCCN)NC1=O [PSM-0432, DOTA-Pamb-Aib-Pcf-[Cys-Lys-Arg-Aib-Asn-Cys]-Tle-Bal-NH2] ({DOTA-4Amb}-[Aib][Phe(4-Cl)]CKR[Aib]NC[Tle][βAla]-NH2; disulfide 3-8) | < 200 nM | < 12.6 nM |
| CCCCNC(=O)N[C@H](C(=O)NC(C)(C)C(=O)N[C@@H](Cc1ccccc1)C(=O)N[C@H]1CSSC[C@@H](C(=O)N[C@H](C(=O)N[C@H](C(=O)N2CCC(CC(=O)N[C@H](CCCCNC(=O)CN3CCN(CC(=O)O)CCN(CC(=O)O)CCN(CC(=O)O)CC3)C(N)=O)CC2)[C@@H](C)O)C(C)(C)C)NC(=O)[C@H](CC(N)=O)NC(=O)C(C)(C)NC(=O)[C@H](CCCNC(N)=O)NC(=O)[C@H](CCCCN)NC1=O)[C@@H](C)O [PSM-0434, nBuCAyl-Thr-Aib-Phe-[Cys-Lys-Cit-Aib-Asn-Cys]-Tle-Thr-Cmp-lys(DOTA)-NH2] ({NHBu-CO}-T[Aib]FCK[Cit][Aib]NC[Tle]T[X1][dK](DOTA)-NH2; disulfide 4-9) | 200 to 1260 nM | 12.6 to 126 nM |
| CC(=O)N[C@H](C(=O)NC(C)(C)C(=O)N[C@@H](Cc1ccccc1)C(=O)N[C@H]1CSSC[C@@H](C(=O)N[C@H](C(=O)N[C@H](C(=O)N[C@@H](CC(=O)O)C(N)=O)[C@@H](C)O)C(C)(C)C)NC(=O)[C@H](CC(N)=O)NC(=O)[C@H](C)NC(=O)[C@H](CCCNC(=N)N)NC(=O)[C@H](CCC(N)=O)NC1=O)[C@@H](C)O [PSM-0435, Ac-Thr-Aib-Phe-[Cys-Gln-Arg-Ala-Asn-Cys]-Tle-Thr-Asp-NH2] (Ac-T[Aib]FCQRANC[Tle]TD-NH2; disulfide 4-9) | < 200 nM | 12.6 to 126 nM |
| C[C@@H](O)[C@H](NC(=O)[C@@H](NC(=O)[C@@H]1CSSC[C@H](NC(=O)[C@H](Cc2ccccc2)NC(=O)C(C)(C)NC(=O)CCNC(=O)CN2CCN(CC(=O)O)CCN(CC(=O)O)CCN(CC(=O)O)CC2)C(=O)N[C@@H](CCCCN)C(=O)N[C@@H](CCCNC(=N)N)C(=O)NC(C)(C)C(=O)N[C@@H](CC(N)=O)C(=O)N1)C(C)(C)C)C(N)=O [PSM-0437, DOTA-Bal-Aib-Phe-[Cys-Lys-Arg-Aib-Asn-Cys]-Tle-Thr-NH2] ({DOTA-βAla}-[Aib]FCKR[Aib]NC[Tle]T-NH2; disulfide 3-8) | < 200 nM | 12.6 to 126 nM |
| CC(=O)N[C@H](C(=O)NC(C)(C)C(=O)N[C@@H](Cc1ccccc1)C(=O)N[C@H]1CSSC[C@@H](C(=O)N[C@H](C(=O)N[C@H](C(=O)N[C@@H](CC(=O)O)C(N)=O)[C@@H](C)O)C(C)(C)C)NC(=O)[C@H](CC(N)=O)NC(=O)[C@H](C)NC(=O)[C@H](CCCNC(=N)N)NC(=O)[C@H](Cc2ccc(N)cc2)NC1=O)[C@@H](C)O [PSM-0439, Ac-Thr-Aib-Phe-[Cys-Aph-Arg-Ala-Asn-Cys]-Tle-Thr-Asp-NH2] (Ac-T[Aib]FC[Phe(4-NH2)]RANC[Tle]TD-NH2; disulfide 4-9) | < 200 nM | 126 to 501 nM |
| CC(=O)N[C@H](C(=O)NC(C)(C)C(=O)N[C@@H](CSCc1ccccc1)C(=O)N[C@H]1CSSC[C@@H](C(=O)N[C@H](C(=O)N[C@H](C(N)=O)[C@@H](C)O)C(C)(C)C)NC(=O)[C@H](CC(N)=O)NC(=O)C(C)(C)NC(=O)[C@H](CCCNC(=N)N)NC(=O)[C@H](CCCCN)NC1=O)[C@@H](C)O [PSM-0441, Ac-Thr-Aib-Cys(Bzl)-[Cys-Lys-Arg-Aib-Asn-Cys]-Tle-Thr-NH2] (Ac-T[Aib]C(Bn)CKR[Aib]NC[Tle]T-NH2; disulfide 4-9) | < 200 nM | 12.6 to 126 nM |
| CC(=O)NC(C)(C)C(=O)N[C@@H](Cc1ccccc1)C(=O)N[C@H]1CSSC[C@@H](C(=O)N[C@H](C(=O)N[C@H](C(=O)N[C@@H](CC(=O)O)C(N)=O)[C@@H](C)O)C(C)(C)C)NC(=O)[C@H](CC(N)=O)NC(=O)C(C)(C)NC(=O)[C@H](CCCNC(=N)N)NC(=O)[C@H](CCCCN)NC1=O [PSM-0442, Ac-Aib-Phe-[Cys-Lys-Arg-Aib-Asn-Cys]-Tle-Thr-Asp-NH2] (Ac-[Aib]FCKR[Aib]NC[Tle]TD-NH2; disulfide 3-8) | < 200 nM | < 12.6 nM |
| CC(=O)NC(C)(C)C(=O)N[C@@H](Cc1ccc(Cl)cc1)C(=O)N[C@H]1CSSC[C@@H](C(N)=O)NC(=O)[C@H](CC(N)=O)NC(=O)C(C)(C)NC(=O)[C@H](CCCNC(=N)N)NC(=O)[C@H](CCCCN)NC1=O [PSM-0443, Ac-Aib-Pcf-[Cys-Lys-Arg-Aib-Asn-Cys]-NH2] (Ac-[Aib][Phe(4-Cl)]CKR[Aib]NC-NH2; disulfide 3-8) | 200 to 1260 nM | > 501 nM |
